Values quoted from earlier work in patent publication US12612577B2, “Perfumed compositions, process of preparing thereof and uses” (MINASOLVE SAS, priority 2019, dated 2026).

System: bacteria and fungi
Conditions: against bacteria and fungi

CCCC(O)CO (stereo not shown) [1,2-pentanediol]
minimum inhibitory concentration (MIC): 5%
